Design in all cases: scale not given: the % may be the effect or the level left
In data set [1] the target is T1, Multidrug resistance-associated protein 1 (Homo sapiens, UniProt P33527). As to the kind of experiment: TP_TRANSPORTER: inhibition of DNP-SG uptake (DNP-SG: 0.01 uM, TLCAS: 10 uM) in membrane vesicles from GLC4/ADR cells. The format is functional, cell membranes, Membrane vesicle. Particulars: glc-4/adr.
In data set [2] the target is T2, Multidrug resistance-associated protein 1 (MRP1) (Homo sapiens, UniProt P33527). Nature of the data set: TP_TRANSPORTER: inhibition of DNP-SG uptake (DNP-SG: 0.01 uM, Calcein-AM: 10 uM) in membrane vesicles from GLC4/ADR cells. The format is functional, cell membranes, GLC-4/ADR, Membrane vesicle. Particulars: probe DNP-SG, read-out: Activity.
T2 sequence (P33527 whole entry): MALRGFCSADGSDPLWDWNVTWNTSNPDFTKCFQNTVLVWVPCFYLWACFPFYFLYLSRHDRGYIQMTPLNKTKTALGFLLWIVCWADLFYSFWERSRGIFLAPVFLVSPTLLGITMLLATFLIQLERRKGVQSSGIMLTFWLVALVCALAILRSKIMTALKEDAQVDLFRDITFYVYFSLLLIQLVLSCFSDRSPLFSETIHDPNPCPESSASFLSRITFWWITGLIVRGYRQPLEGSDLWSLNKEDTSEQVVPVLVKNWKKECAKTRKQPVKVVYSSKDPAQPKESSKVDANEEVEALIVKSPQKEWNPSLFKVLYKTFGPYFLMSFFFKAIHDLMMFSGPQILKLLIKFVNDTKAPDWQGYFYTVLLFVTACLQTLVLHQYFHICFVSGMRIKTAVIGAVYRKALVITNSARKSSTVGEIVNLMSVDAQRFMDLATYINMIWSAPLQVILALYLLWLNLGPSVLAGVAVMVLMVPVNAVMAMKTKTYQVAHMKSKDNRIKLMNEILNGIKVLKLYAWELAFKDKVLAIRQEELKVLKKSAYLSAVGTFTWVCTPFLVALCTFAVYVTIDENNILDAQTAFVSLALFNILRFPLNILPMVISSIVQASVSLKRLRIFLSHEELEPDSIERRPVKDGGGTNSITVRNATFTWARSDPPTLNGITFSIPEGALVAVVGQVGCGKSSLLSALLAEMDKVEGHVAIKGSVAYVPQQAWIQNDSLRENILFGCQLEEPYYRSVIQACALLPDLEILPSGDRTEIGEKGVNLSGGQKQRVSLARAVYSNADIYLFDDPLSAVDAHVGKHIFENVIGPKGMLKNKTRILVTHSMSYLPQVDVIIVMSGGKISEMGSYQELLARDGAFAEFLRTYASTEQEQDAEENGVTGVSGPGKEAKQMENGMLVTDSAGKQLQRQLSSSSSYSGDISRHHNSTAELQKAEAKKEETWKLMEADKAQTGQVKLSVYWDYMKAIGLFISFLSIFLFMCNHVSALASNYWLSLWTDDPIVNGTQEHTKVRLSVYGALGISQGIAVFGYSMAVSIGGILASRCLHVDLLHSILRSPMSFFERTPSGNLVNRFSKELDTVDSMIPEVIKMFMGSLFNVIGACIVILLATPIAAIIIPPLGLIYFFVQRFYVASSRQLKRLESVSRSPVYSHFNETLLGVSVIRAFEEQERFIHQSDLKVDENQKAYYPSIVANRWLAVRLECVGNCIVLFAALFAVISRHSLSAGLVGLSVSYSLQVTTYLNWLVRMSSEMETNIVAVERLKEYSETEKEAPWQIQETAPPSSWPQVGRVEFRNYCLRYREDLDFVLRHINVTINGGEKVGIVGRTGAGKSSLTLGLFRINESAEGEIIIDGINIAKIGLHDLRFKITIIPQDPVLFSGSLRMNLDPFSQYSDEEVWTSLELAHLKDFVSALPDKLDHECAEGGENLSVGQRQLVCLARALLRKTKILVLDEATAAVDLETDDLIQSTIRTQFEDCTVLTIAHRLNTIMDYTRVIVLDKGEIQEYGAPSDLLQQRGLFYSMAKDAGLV
Data set [3] addresses T2, Multidrug resistance-associated protein 1 (MRP1). Nature of the data set: TP_TRANSPORTER: inhibition of DNP-SG uptake (DNP-SG: 0.01 uM, VP-16: 10 uM) in membrane vesicles from GLC4/ADR cells. In kind it is functional, cell membranes, GLC-4/ADR, Membrane vesicle. Particulars: probe DNP-SG, read-out: Activity.
Data set [4] shares this target. Nature of the data set: TP_TRANSPORTER: inhibition of DNP-SG uptake (DNP-SG: 0.01 uM, Idarbicin: 10 uM) in membrane vesicles from GLC4/ADR cells. In kind it is functional, cell membranes, GLC-4/ADR, Membrane vesicle. Particulars: probe DNP-SG, read-out: Activity.
Data set [5] deals with T1, Multidrug resistance-associated protein 1. As to the kind of experiment: TP_TRANSPORTER: inhibition of DNP-SG uptake (DNP-SG: 0.01 uM, ICG: 10 uM) in membrane vesicles from GLC4/ADR cells. In kind it is functional, cell membranes, Membrane vesicle. Particulars: glc-4/adr.
The target in data set [6] is T2, Multidrug resistance-associated protein 1 (MRP1). As to the kind of experiment: TP_TRANSPORTER: inhibition of DNP-SG uptake (DNP-SG: 0.01 uM, MTX: 10 uM) in membrane vesicles from GLC4/ADR cells. Particulars: probe DNP-SG, read-out: Activity. The format is functional, cell membranes, GLC-4/ADR, Membrane vesicle.
Data set [7] has the same target. As to the kind of experiment: TP_TRANSPORTER: inhibition of DNP-SG uptake (DNP-SG: 0.01 uM, Calcein: 500 uM) in membrane vesicles from GLC4/ADR cells. In kind it is functional, cell membranes, GLC-4/ADR, Membrane vesicle. The note with it: probe DNP-SG, read-out: Activity.
For data set [8], the target named is T1, Multidrug resistance-associated protein 1. As to the kind of experiment: TP_TRANSPORTER: inhibition of DNP-SG uptake (DNP-SG: 0.01 uM, Taxol: 10 uM) in membrane vesicles from GLC4/ADR cells. In kind it is functional, cell membranes, Membrane vesicle. The note with it: glc-4/adr.
For data set [9], the target named is T2, Multidrug resistance-associated protein 1 (MRP1). Nature of the data set: TP_TRANSPORTER: inhibition of DNP-SG uptake (DNP-SG: 0.01 uM, TCAS: 10 uM) in membrane vesicles from GLC4/ADR cells. The format is functional, cell membranes, GLC-4/ADR, Membrane vesicle. Particulars: probe DNP-SG, read-out: Activity.
For data set [10] the target is unchanged. Nature of the data set: TP_TRANSPORTER: inhibition of DNP-SG uptake (DNP-SG: 0.01 uM, TLC: 10 uM) in membrane vesicles from GLC4/ADR cells. The format is functional, cell membranes, GLC-4/ADR, Membrane vesicle. Particulars: probe DNP-SG, read-out: Activity.

Where a name gives a salt, the structure may show the parent alone.

T1 sequence (P33527 whole entry): as above

In data set [1], `C[C@H](CCC(=O)NCCS(=O)(=O)O)C1CC[C@H]2[C@@H]3CC[C@@H]4C[C@H](OS(=O)(=O)O)CC[C@]4(C)[C@H]3CC[C@]12C` (stereo not given in full) returned an Activity of 11%.

As to `CC(=O)OCOC(=O)CN(CC(=O)OCOC(C)=O)Cc1c(OC(C)=O)ccc2c1Oc1c(ccc(OC(C)=O)c1CN(CC(=O)OCOC(C)=O)CC(=O)OCOC(C)=O)C21OC(=O)c2ccccc21`, the activity at 10 µM in [2] is 44%.

Take `COc1cc([C@@H]2c3cc4c(cc3[C@@H](O[C@@H]3O[C@@H]5CO[C@@H](C)O[C@H]5[C@H](O)[C@H]3O)[C@H]3COC(=O)[C@H]23)OCO4)cc(OC)c1O` [ETOPOSIDE]: the activity at 10 µM in [3] is 50%.

As to `CC(=O)[C@]1(O)Cc2c(O)c3c(c(O)c2[C@@H](O[C@H]2C[C@H](N)[C@H](O)[C@H](C)O2)C1)C(=O)c1ccccc1C3=O` [IDARUBICIN], in data set [4], the activity at 10 µM was found to be 52%.

For the molecule `CC1(C)C(/C=C/C=C/C=C/C=C2/N(CCCCS(=O)(=O)[O-])c3ccc4ccccc4c3C2(C)C)=[N+](CCCCS(=O)(=O)[O-])c2ccc3ccccc3c21.[Na+]` [INDOCYANINE GREEN], the Activity in [5] amounted to 34%.

With `CN(Cc1cnc2nc(N)nc(N)c2n1)c1ccc(C(=O)N[C@@H](CCC(=O)O)C(=O)O)cc1` [METHOTREXATE], the activity at 10 µM in data set [6] amounted to 82%.

For the molecule `O=C(O)CN(CC(=O)O)Cc1cc2c(cc1O)Oc1cc(O)c(CN(CC(=O)O)CC(=O)O)cc1C21OC(=O)c2ccccc21` [OFTASCEINE], the activity at 500 µM in data set [7] was 40%.

The molecule `CC(=O)O[C@H]1C(=O)[C@@]2(C)[C@H]([C@H](OC(=O)c3ccccc3)[C@]3(O)C[C@H](OC(=O)[C@H](O)[C@@H](NC(=O)c4ccccc4)c4ccccc4)C(C)=C1C3(C)C)[C@]1(OC(C)=O)CO[C@@H]1C[C@@H]2O` [PACLITAXEL] showed an Activity in data set [8] of 66%.

Turning to `C[C@H](CCC(=O)NCCS(=O)(=O)O)C1CC[C@H]2[C@@H]3[C@H](O)C[C@@H]4C[C@H](OS(=O)(=O)O)CC[C@]4(C)[C@H]3C[C@H](O)[C@]12C` (stereo not given in full) [TAUROCHOLATE SULFATE], the activity at 10 µM in data set [9] was 76%.

`C[C@H](CCC(=O)NCCS(=O)(=O)O)[C@H]1CC[C@H]2[C@@H]3CC[C@@H]4C[C@H](O)CC[C@]4(C)[C@H]3CC[C@]12C` [TAUROLITHOCHOLIC ACID]: the activity at 10 µM in data set [10] is 56%.

The values are drawn from ChEMBL document CHEMBL2074115, “Anthracyclines modulate multidrug resistance protein (MRP) mediated organic anion transport” (Biochim Biophys Acta, 1997).
